Data from ChEMBL document CHEMBL6115029, “Discovery of Daraxonrasib (RMC-6236), a Potent and Orally Bioavailable RAS(ON) Multi-selective, Noncovalent Tri-complex Inhibitor for the Treatment of Patients with Multiple RAS-Addicted Cancers” (J Med Chem, 2025).
Values after ≈ are worked out from the molar mass of the structure shown.

Legend:
[1] = target: Peptidyl-prolyl cis-trans isomerase A (Homo sapiens, UniProt P62937); test: Binding affinity to Avi-tagged Cyclophilin A (unknown origin) assessed as dissociation constant by SPR analysis
Sequence of Peptidyl-prolyl cis-trans isomerase A (P62937 whole entry, the tested form may be a part): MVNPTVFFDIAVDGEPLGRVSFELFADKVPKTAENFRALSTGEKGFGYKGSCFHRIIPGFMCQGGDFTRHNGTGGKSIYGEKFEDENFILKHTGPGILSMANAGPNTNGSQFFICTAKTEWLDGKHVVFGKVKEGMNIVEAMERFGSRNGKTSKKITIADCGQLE

[2] = Inhibition of 6His-tagged KRAS G12V mutant(1 to 169 residues)/GST-tagged GMPPNP-bound BRAF RBD (155 to 229 reisudes)/Cyclophilin A (unknown origin) tri-complex protein-protein interaction incubated for 3 hrs by TR-FERT based disruption assay; design: species or system Homo sapiens
[3] = Inhibition of 6His-tagged KRAS G12D mutant(1 to 169 residues)/GST-tagged GMPPNP-bound BRAF RBD (155 to 229 reisudes)/Cyclophilin A (unknown origin) tri-complex protein-protein interaction incubated for 3 hrs by TR-FERT based disruption assay; design: species or system Homo sapiens
[4] = Inhibition of 6His-tagged KRAS G12C mutant(1 to 169 residues)/GST-tagged GMPPNP-bound BRAF RBD (155 to 229 reisudes)/Cyclophilin A (unknown origin) tri-complex protein-protein interaction incubated for 3 hrs by TR-FERT based disruption assay; design: species or system Homo sapiens
[5] = Inhibition of 6His-tagged wildtype KRAS (1 to 169 residues)/GST-tagged GMPPNP-bound BRAF RBD (155 to 229 reisudes)/Cyclophilin A (unknown origin) tri-complex protein-protein interaction incubated for 3 hrs by TR-FERT based disruption assay; design: species or system Homo sapiens
[6] = test system: CAPAN-1; test: Cytotoxicity against human CAPAN-1 cells harboring KRAS G12V mutant cultured as 2D cells assessed as reduction in cell viability incubated for 120 hrs by CellTiter-Glo luminescence assay; assay type: functional, cell-based; conditions: CAPAN-1, 120 h
[7] = test system: ASPC1; test: Cytotoxicity against human ASPC1 cells harboring KRAS G12D mutant cultured as 2D cells assessed as reduction in cell viability incubated for 120 hrs by CellTiter-Glo luminescence assay; assay type: functional, cell-based; conditions: ASPC1, 120 h
[8] = test system: NCI-H358; test: Cytotoxicity against human NCI-H358 cells harboring KRAS G12C mutant cultured as 2D cells assessed as reduction in cell viability incubated for 120 hrs by CellTiter-Glo luminescence assay; assay type: functional, cell-based; conditions: NCI-H358, 120 h
[9] = test system: NCI-H1975; test: Cytotoxicity against human NCI-H1975 cells harboring wildtype KRAS cultured as 2D cells assessed as reduction in cell viability incubated for 120 hrs by CellTiter-Glo luminescence assay; assay type: functional, cell-based; conditions: NCI-H1975, 120 h
[10] = Inhibition of ERK1/2 phosphorylation in human CAPAN-1 cells harboring KRAS G12V mutant incubated for 4 hrs by AlphaLISA assay; assay type: cell-based; conditions: CAPAN-1, 4 h
[11] = Inhibition of ERK1/2 phosphorylation in human NCI-H358 cells harboring KRAS G12C mutant incubated for 4 hrs by AlphaLISA assay; assay type: cell-based; conditions: NCI-H358, 4 h
[12] = Inhibition of ERK1/2 phosphorylation in human ASPC1 cells harboring KRAS G12D mutant incubated for 4 hrs by AlphaLISA assay; assay type: cell-based; conditions: ASPC1, 4 h
[13] = Metabolic stability in mouse liver microsomes assessed as half-life at 2 uM measured upto 60 mins in presence of NADPH by LC-MS/MS analysis; assay type: ADME, Microsome
[14] = test system: A-375; test: Cytotoxicity against human A-375 cells assessed as reduction in cell viability incubated for 120 hrs by CellTiter-Glo luminescence assay; assay type: functional, cell-based; conditions: A-375, 120 h
[15] = Kinetic solubility of compound in PBS at pH 7.4 measured after 5 hrs by UV analysis; assay type: physicochemical; conditions: read-out: Kinetic_solubility
[16] = Apparent permeability across apical to basolateral side in human Caco-2 cells at 5 uM incubated for 2 hrs by LC-MS/MS analysis; assay type: ADME, cell-based
[17] = Efflux ratio of apparent permeability in human Caco-2 cells at 5 uM incubated for 2 hrs by LC-MS/MS analysis; assay type: ADME, cell-based
[18] = Lipophilicity, logD of compound at pH 7.4 by Agilent 1290 II uPLC analysis; assay type: physicochemical; conditions: buffer
[19] = Clearance in female BALB/c mouse at 1 mg/kg, iv measured after 24 hrs by LC-MS/MS analysis; assay type: ADME, organism-based; conditions: in vivo
[20] = Half-life in female BALB/c mouse at 1 mg/kg, iv measured after 24 hrs by LC-MS/MS analysis; assay type: ADME, organism-based; conditions: in vivo
[21] = Oral bioavailability in female BALB/c mouse at 10 mg/kg measured after 24 hrs by LC-MS/MS analysis; assay type: ADME, organism-based; conditions: in vivo

SMILES | Kd [1] [nM] | IC50 [2] [nM] | IC50 [3] [nM] | IC50 [4] [nM] | IC50 [5] [nM] | EC50 [10] [nM] | EC50 [11] [nM] | EC50 [12] [nM] | half-life at 2 µM [13] [min] | solubility kinetic at 5 h [15] [µM] | Papp A→B at 2 h, 5 µM [16] [×10⁻⁶ cm/s] | efflux ratio at 2 h, 5 µM [17] | logD [18] | clearance [19] [mL/min/kg] | half-life [20] [min] | EC50 [6] [nM] | EC50 [7] [nM] | EC50 [8] [nM] | EC50 [9] [nM] | EC50 [14] [nM] | also measured
CCn1c(-c2cc(N3CCN(C)CC3)cnc2[C@H](C)OC)c2c3cc(ccc31)-c1csc(n1)C[C@H](NC(=O)[C@H]1[C@@H]3COC[C@@H]31)C(=O)N1CCC[C@H](N1)C(=O)OCC(C)(C)C2 | 60 | 40 | 151 | 29 | 69 | 0.3 | 1.7 | 2.4 | > 120 | 23 (≈ 19.3 µg/mL) | 0.3 | 43 | 4.1 | – | – | 1.1 | 2.1 | 0.4 | 0.4 | 9450 | –
CCn1c(-c2cccnc2[C@H](C)OC)c2c3cc(ccc31)-c1csc(n1)C[C@H](NC(=O)[C@H]1[C@@H]3COC[C@@H]31)C(=O)N1CCC[C@H](N1)C(=O)OCC(C)(C)C2 | 2420 | 84 | 346 | 51 | 139 | 11 | 26 | 146 | 26 | 15 (≈ 11.1 µg/mL) | 2.3 | 7.5 | – | 6.67 | 126 | 69 | 92 | 30 | – | > 10000 | bioavailability [21]: 49%
CCn1c(-c2cccnc2[C@H](C)OC)c2c3cc(ccc31)-c1csc(n1)C[C@H](NC(=O)[C@H](C(C)C)N(C)C(=O)N1CCC1)C(=O)N1CCC[C@H](N1)C(=O)OCC(C)(C)C2 | 293 | – | 491 | 35 | 107 | 2 | 1 | 22 | 9 | < 2 | 0.09 | 13.6 | – | 65 | 48 | 11 | – | 7 | 28 | 4400 | IC50 [7]: 37 nM; bioavailability [21]: 2.2%
CCn1c(-c2cccnc2[C@H](C)OC)c2c3cc(ccc31)-c1csc(n1)C[C@H](NC(=O)[C@H](C(C)C)N(C)C(=O)OC)C(=O)N1CCC[C@H](N1)C(=O)OCC(C)(C)C2 | 184 | – | 3070 | 302 | 742 | 8 | 63 | 326 | 11 | < 2 | 0.08 | 7.4 | – | – | – | 28 | – | 35 | – | 5420 | IC50 [7]: 400 nM

Second part, led by results:

Kd [1] [nM] | IC50 [2] [nM] | IC50 [3] [nM] | IC50 [4] [nM] | IC50 [5] [nM] | EC50 [10] [nM] | EC50 [11] [nM] | EC50 [12] [nM] | half-life at 2 µM [13] [min] | solubility kinetic at 5 h [15] [µM] | Papp A→B at 2 h, 5 µM [16] [×10⁻⁶ cm/s] | efflux ratio at 2 h, 5 µM [17] | logD [18] | clearance [19] [mL/min/kg] | half-life [20] [min] | SMILES | EC50 [6] [nM] | EC50 [7] [nM] | EC50 [8] [nM] | EC50 [9] [nM] | EC50 [14] [nM] | also measured
– | 77 | 435 | 50 | 138 | 2 | 10.6 | 50.1 | > 120 | 117 (≈ 95.1 µg/mL) | 0.4 | 62 | 4.3 | – | – | CCn1c(-c2cc(N3CCN(C)CC3)cnc2[C@H](C)OC)c2c3cc(ccc31)-c1csc(n1)C[C@H](NC(=O)[C@H]1CCO1)C(=O)N1CCC[C@H](N1)C(=O)OCC(C)(C)C2 | 14.2 | 45.2 | 22.3 | 7.9 | 6950 | –
18700 | 301 | 1950 | 208 | 615 | 147 | 166 | 3410 | 94 | 15 (≈ 10.5 µg/mL) | 4.3 | 1.6 | 4.8 | 5 | 120 | CCn1c(-c2cccnc2[C@H](C)OC)c2c3cc(ccc31)-c1csc(n1)C[C@H](NC(=O)C1CC1)C(=O)N1CCC[C@H](N1)C(=O)OCC(C)(C)C2 | 485 | 852 | 403 | 188 | 5950 | bioavailability [21]: 53%
468 | – | 548 | 58 | 108 | 3 | 11 | 42 | 5 | 49 (≈ 39.9 µg/mL) | 0.94 | 2.9 | – | 55 | 42 | CCn1c(-c2cccnc2[C@H](C)OC)c2c3cc(ccc31)-c1csc(n1)C[C@H](NC(=O)[C@H](C(C)C)N(C)C(=O)N(C)C)C(=O)N1CCC[C@H](N1)C(=O)OCC(C)(C)C2 | 18 | – | 6 | 26 | 5820 | IC50 [7]: 75 nM; bioavailability [21]: 0.8%
396 | 64 | 277 | 50 | 117 | 1.3 | 4.9 | 15.2 | – | 5 (≈ 4.19 µg/mL) | 2.2 | – | 5.3 | – | – | CCn1c(-c2cc(N3CCN(C4CC4)CC3)cnc2[C@H](C)OC)c2c3cc(ccc31)-c1csc(n1)C[C@H](NC(=O)[C@H]1C[C@@H]1C)C(=O)N1CCC[C@H](N1)C(=O)OCC(C)(C)C2 | 8.1 | 13.9 | 3.4 | – | > 10000 | –
